Drawing on patent US20150336881A1, “AMIDE COMPOUND AND USE THEREOF FOR PEST CONTROL” (Sumitomo Chemical Company, Limited, priority 2012, published 2015), this text covers mortality for eleven molecules.

In series [1] the test system is Adoxophyes orana fasciata. Kind of series: Test Example 7: sprayed apple tree, Adoxophyes orana fasciata larvae released. The settings on record: in vivo. How it is done:
The formulations of Compounds of Present Invention 1 to 5, 8 to 14, 18, 19, 25, 26, 54, 55, 60, 68 to 74, 76 to 78, 85, 86, 88 and 90 and Intermediate Compounds M6-8 to M6-13 as obtained in Formulation Example 5 were diluted with water, so as to have a concentration of the active ingredient of 500 ppm, to prepare a diluted liquid for test.
On the other hand, an apple tree was planted in a plastic cup, and grown until the seventh-eighth true leaf was spread. To the apple tree was sprayed in an amount of 20 mL/cup of the diluted liquid for test. After the drug solution was dried, 60 first-instar Adoxophyes orana fasciata were released, and the plastic cup the bottom of which was cut off and on which a filter paper was put was upside-down and covered. After 7 days, the number of surviving insects was counted, and the mortality was calculated according to the following equation:
Mortality (%)=(Number of dead insects/Number of tested insects)×100.

Series [2] has as its system Blattella germanica. The series can be described thus: Test Example 9: treated filter paper with sucrose bait, Blattella germanica. Type of series: in vivo. The note with it: 500 ppm, 0.7 ml on filter paper, male imagoes of Blattella germanica, after 6 days. The procedure: The formulations of Compounds of Present Invention 3, 10 and 11 as obtained in Formulation Example 5 were diluted with water, so as to have a concentration of the active ingredient of 500 ppm, to prepare a diluted liquid for test.
A filter paper having a diameter of 5.5 cm was spread on the bottom of a polyethylene cup having the same diameter and 0.7 ml of the diluted liquid for test was added dropwise onto the filter paper, and 30 mg of sucrose was uniformly placed as bait. Into the polyethylene cup, 2 male imagoes of Blattella germanica were released, and the cup was sealed with a lid. After 6 days, the life and death of Blattella germanica was examined, and the mortality was calculated.

For series [3], the system named is Musca domestica. Kind of series: Test Example 8: treated filter paper with sucrose bait, Musca domestica. Type of series: in vivo. The note with it: 0.7 ml on filter paper, female imagoes of Musca domestica, after 24 hours. How it is done:
Each of formulations of Compounds of Present Invention 1 to 5, 10, 18, 19, 25, 26, 60 and 68 and Intermediate Compound M6-1 as obtained in Formulation Example 5 was diluted with water, so as to have a concentration of the active ingredient of 500 ppm, to prepare a diluted liquid for test.
A filter paper having a diameter of 5.5 cm was spread on the bottom of a polyethylene cup having the same diameter and 0.7 ml of the diluted liquid for test was added dropwise onto the filter paper, and 30 mg of sucrose was uniformly placed as bait. Into the polyethylene cup, 10 female imagoes of Musca domestica were released, and the cup was sealed with a lid. After 24 hours, the life and death of Musca domestica was examined, and the mortality was calculated.

For series [4], the system named is Culex pipiens pallens. Kind of series: Test Example 10: Culex pipiens pallens larvae in treated water. Type of series: in vivo. The note with it: 24 h; active ingredient concentration 3.5 ppm in water, last-instar larvae of Culex pipiens pallens, one day later. How it is done: The formulations of Compounds of Present Invention 1 to 5, 8 to 11, 13, 18, 19, 25, 26, 44, 53 to 55, 59, 60, 68 to 74, 78, 86 to 88 and 90 and Intermediate Compounds M6-3, M6-4, M6-11, M6-12 and M6-23 as obtained in Formulation Example 5 were diluted with water, so as to have a concentration of the active ingredient of 500 ppm, to prepare a diluted liquid for test.
0.7 ml of the diluted liquid for test was added to 100 ml of ion-exchanged water (active ingredient concentration: 3.5 ppm). 20 last-instar larvae of Culex pipiens pallens were released into the solution. One day later, the life and death of the Culex pipiens pallens was examined, and the mortality of the pest was calculated.

The mortality is the share of the test organisms that died. Regarding `CCS(=O)(=O)c1cc(C(F)(F)F)ccc1C(=O)N(C)c1ccc(C(F)(F)C(F)(F)F)cc1` [compound 10], the mortality in series [1] and in series [2] was 100% throughout. With `CCSc1ccccc1C(=O)N(C)c1ccc(SC(F)(F)F)cc1` [compound 19], the mortality in series [1] worked out at 100%.

As to `CCSc1cc(C(F)(F)F)ccc1C(=O)Nc1ccc(C(F)(F)F)cc1` [Intermediate Compound M6-1, 2-ethylsulfanyl-4-trifluoromethyl-N-(4-trifluoromethyl-phenyl)-benzamide], the mortality in series [1] is 100%. The mortality at 500 ppm in series [3] stood at 100%. Take `CCSc1cc(C(F)(F)F)ccc1C(=O)Nc1ccc(C(F)(F)C(F)(F)F)cc1` [Intermediate Compound M6-3, 2-ethylsulfanyl-N-(4-pentafluoroethyl-phenyl)-4-trifluoromethyl-benzamide]: the mortality at 3.5 ppm in series [4] was not below 95%. Consider `CCS(=O)(=O)c1ccccc1C(=O)N(C)c1ccc(C(F)(F)C(F)(F)F)cc1` [compound 25], for which, in series [1], the mortality stood at 100%. On the same count and under the same terms, the figure for `CCSc1cc(C(F)(F)F)ccc1C(=O)N(C)c1ccc(C(F)(F)F)c(Cl)c1` [compound 68] is 100%. In series [4], `CCSc1cc(C(F)(F)F)ccc1C(=O)Nc1ccc(SC(F)(F)F)cc1` [Intermediate Compound M6-4, 2-ethylsulfanyl-N-(4-trifluoromethylsulfanyl-phenyl)-4-trifluoromethyl-benzamide] returned a mortality at 3.5 ppm not below 95%.

In the case of `CCSc1ccccc1C(=O)N(C)c1ccc(C(F)(F)C(F)(F)F)cc1` [compound 18], the mortality in series [1] stood at 100%. Consider `CCSc1cc(C(F)(F)F)ccc1C(=O)N(C)c1ccc(OC(F)(F)F)c(Br)c1` [compound 60], for which the mortality in series [1] amounted to 100%. Molecule `CCS(=O)(=O)c1cc(C(F)(F)F)ccc1C(=O)N(C)c1ccc(SC(F)(F)F)cc1` [compound 11] returned a mortality in series [2] of 100%. For the molecule `CCS(=O)(=O)c1ccccc1C(=O)N(C)c1ccc(SC(F)(F)F)cc1` [compound 26], the mortality in series [1] worked out at 100%.
